Data taken from paper PMC4060991, “The Human Orphan Nuclear Receptor Tailless (TLX, NR2E1) Is Druggable” (PLoS ONE, 2014).

Tests used:
human LXRβ LBD = target: T1, human LXRβ LBD (Homo sapiens, UniProt P55055); experiment: DSF on purified LXRβ LBD; format: binding; conditions: compound 500 µM; unliganded Tm ∼39°C
T1 construct: human LXRβ LBD (Liver X Receptor beta, a.a. 226–460) was expressed; His6 followed by TEV protease cleavage site (N); made in house; host or cells: E. coli BL21 (DE3) star
T1 sequence (P55055 226-460): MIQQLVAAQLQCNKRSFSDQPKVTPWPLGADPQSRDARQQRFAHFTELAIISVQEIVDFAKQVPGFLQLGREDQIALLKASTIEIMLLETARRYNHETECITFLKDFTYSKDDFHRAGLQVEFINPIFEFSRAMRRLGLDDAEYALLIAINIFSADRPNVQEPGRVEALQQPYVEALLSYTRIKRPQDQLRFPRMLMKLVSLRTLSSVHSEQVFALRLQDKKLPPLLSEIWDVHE
Description: (§1) Protein stability was assessed with DSF in absence or presence of test compounds in a LightCycler 480 II qRT-PCR Detection System (Roche) in 384-well format. Sypro-Orange dye (Life Technologies) was used to monitor fluorescence, with filters for fluorescence excitation at 465 nm and for fluorescence emission at 610 nm. […] Tested sample mixtures were heated from 25°C to 96°C at a rate of 0.05°C/sec with 11 acquisitions per °C. Each compound was tested in duplicates. The melting temperature (Tm) for each sample was deduced by the ThermoQ Analytical software (HMRI) from the first derivative of the corresponding denaturation curve generated by the LightCycler 480 software. The same protocol was applied to investigate the stability of purified ERβ and LXRβ LBDs in presence or absence of the compounds. The optimal final concentrations for these experiments were 0.02 mg/mL for ERβ LBD and 0.20 mg/mL for LXRβ LBD. All DSF-based analyses were performed using freshly purified protein.

human RXRα LBD = target: T2, human RXRα LBD (Homo sapiens, UniProt P19793); experiment: GAL4 DBD-RXRα LBD luciferase transactivation assay in HeLa cells; format: cell-based; conditions: 10 µM, 24 h, alone or in competition with 9-cis retinoic acid 100 nM
T2 construct: expressed in transfected cells; host or cells: HeLa
T2 sequence (P19793 225-462): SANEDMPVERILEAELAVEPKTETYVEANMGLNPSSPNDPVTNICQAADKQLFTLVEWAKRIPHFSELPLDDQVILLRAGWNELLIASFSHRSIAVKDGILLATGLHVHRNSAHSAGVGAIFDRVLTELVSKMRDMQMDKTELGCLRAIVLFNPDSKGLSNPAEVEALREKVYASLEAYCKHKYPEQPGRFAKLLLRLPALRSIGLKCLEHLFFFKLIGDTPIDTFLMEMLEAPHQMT
Description: We cloned human RXRα LBD (residues 225–462) in the vector pBIND as described above. Transient co-transfections of HeLa cells with vectors encoding either Gal4DBD or Gal4 DBD-RXRα LBD fusion (both at 10 ng/well), pGL4.35 reporter gene (200 ng/well) and renilla luciferase gene (10 ng/well, internal control) were performed in batches of 10^5 cells seeded into 12-well tissue culture plates. The transfections were done using TransFectin Lipid Reagent (Biorad). Three hours after the transfections, cells were treated with either DMSO (0.1%, control) or compounds ccrp1, ccrp2 or ccrp3 at 10 µM, in the absence or the presence of 9-cis retinoic acid (RA, 100 nM). Following 24 h incubation, luciferase activities in each well were assessed as described above. Cells transfected with Gal4 DBD vector served as a control for RXR independent effects.

HeLa cells = experiment: Toxicity observed in transfection experiments; format: cell-based, human; conditions: tested at different concentrations
Description: HeLa cells were maintained in D-MEM High Glucose (Hyclone) supplemented with 10% charcoal:dextran stripped FBS (Hyclone) and 1x Pen/Strep antibiotics (Life Technologies). Transient transfections were carried out in batches on 100,000 cells seeded into 12-well tissue culture plates. The co-transfections were performed using the TransFectin Lipid reagent (Bio-Rad) with approximately 10 ng/well of Gal4 DBD (gift from Phuong Nguyen, Fletterick Laboratory, UCSF) or GAL4-TLX LBD, 10 ng/well of renilla luciferase gene (Promega) for internal control and 200 ng/well of pGL4.35 reporter gene (containing an upstream Gal4 Upstream Activator Sequence and the luciferase gene, Promega). Approximately, 3 h after transfections, cells were treated with compounds of interest at different concentrations, or solvent (DMSO, 0.1%) in DMEM containing no fetal bovine serum or antibiotics. After a 16-h incubation, luciferase activities were assessed using Dual Luciferase assay reagent (Promega). Luciferase activities were calculated by normalizing firefly luciferase to renilla luciferase signal. Normalized luciferase activities were then represented relative to control (DMSO-treated cells). Cells transfected with Gal4 DBD vector served as a control for TLX independent effects.

ERβ LBD = ERβ LBD (Homo sapiens, UniProt Q92731); experiment: DSF on purified ERβ LBD; conditions: compound 500 µM; unliganded Tm ∼51°C
Description: as §1

TLX LBD [1] = target: T3, TLX LBD (Homo sapiens, UniProt Q9Y466); experiment: Differential scanning fluorimetry (DSF) on purified TLX LBD;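 note: thermal unfolding followed by Sypro-Orange fluorescence (excitation 465 nm, emission 610 nm) in 384-well plates, Tm taken from the first derivative of the denaturation curve, duplicate samples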; format: binding; set-up: cDNA fragments encoding human TLX LBD (a.a. 187–385) were cloned; His6 followed by TEV protease cleavage site (N); made in house; host or cells: E. coli BL21 (DE3) star; conditions: compound 500 µM; reference Tm 58.8±0.3°C with 5% DMSO
Description: Protein stability was assessed with DSF in absence or presence of test compounds in a LightCycler 480 II qRT-PCR Detection System (Roche) in 384-well format. Sypro-Orange dye (Life Technologies) was used to monitor fluorescence, with filters for fluorescence excitation at 465 nm and for fluorescence emission at 610 nm. […] Each compound was tested in duplicates. The melting temperature (Tm) for each sample was deduced by the ThermoQ Analytical software (HMRI) from the first derivative of the corresponding denaturation curve generated by the LightCycler 480 software. […] All DSF-based analyses were performed using freshly purified protein.

TLX LBD [2] = target: T3, TLX LBD; experiment: Biolayer interferometry (Octet Red 384) direct binding to immobilized TLX LBD; set-up: cDNA fragments encoding human TLX LBD (a.a. 187–385) were cloned; His6 followed by TEV protease cleavage site (N); made in house; host or cells: E. coli BL21 (DE3) star; conditions: for association/dissociation behaviour (sensorgram): dose-response curves; for maximum binding response (plateau): highest concentrations tested, expected maximum 0.08–0.1 nm for 1:1
Description: Cloning was accomplished with a standard double digest cloning protocol after PCR according to manufacturer’s protocol (Avidity), and the plasmid was sequenced (ACGT, Inc). […] A duplicate set of sensors which serve as reference surfaces were incubated in […] solution of blocked biotinylated Streptavidin protein (Scripps Laboratories) to a loading signal of about 5.5 nm as described by manufacturer’s protocol (FortéBio). Binding of the individual compounds (100 µM) or 1% DMSO (solvent control) was measured over immobilized TLX LBD target biosensors and reference surfaces. Corrected binding response sensorgrams were recorded and analyzed. Data analysis on the FortéBio Octet RED instrument was performed using the FortéBio data analysis software. The analysis accounts for non-specific binding, background, and signal drift and minimizes well based and sensor variability.
The corresponding equilibrium dissociation constants (KD) were determined using steady state analysis of compounds binding affinities, assuming 1∶1 ligand - protein stoichiometry.

T3 sequence (Q9Y466 187-385): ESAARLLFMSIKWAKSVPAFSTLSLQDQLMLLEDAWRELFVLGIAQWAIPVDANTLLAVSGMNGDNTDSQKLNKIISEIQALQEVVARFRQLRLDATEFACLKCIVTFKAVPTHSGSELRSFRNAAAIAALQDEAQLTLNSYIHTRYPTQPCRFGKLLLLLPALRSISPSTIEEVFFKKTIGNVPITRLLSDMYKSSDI
Chain of ERβ LBD (Q92731 261-530): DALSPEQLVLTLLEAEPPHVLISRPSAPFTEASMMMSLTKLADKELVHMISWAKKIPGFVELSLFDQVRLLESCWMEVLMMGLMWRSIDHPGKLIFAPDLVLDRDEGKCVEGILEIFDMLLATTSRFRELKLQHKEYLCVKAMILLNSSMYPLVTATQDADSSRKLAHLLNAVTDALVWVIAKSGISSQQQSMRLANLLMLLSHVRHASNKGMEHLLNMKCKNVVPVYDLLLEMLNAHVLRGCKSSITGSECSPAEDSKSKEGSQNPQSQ

SMILES	melting temperature shift of LXRβ LBD (human LXRβ LBD)	effect on RXRα luciferase activity (human RXRα LBD)	toxicity (HeLa cells)	melting temperature shift of ERβ LBD (ERβ LBD)	melting temperature (Tm) of TLX LBD in presence of compound (TLX LBD [1])	association/dissociation behaviour (sensorgram) (TLX LBD [2])	maximum binding response (plateau) (TLX LBD [2])
Cc1cc(C(=O)N2CCN(C(c3ccccc3)c3ccccc3)CC2)nn1C [ccrp2, 1-(1,5-dimethylpyrazole-3-carbonyl)-4-(diphenylmethyl)piperazine]	Neither compound demonstrates any significant effect on the melting temperatures	No effect on luciferase activity was detected	None of the three compounds displayed toxicity	Neither compound demonstrates any significant effect on the melting temperatures	52.49±1.1 °C	quick association and dissociation	0.06–0.1 nm
CC(C)c1c(CN(C)C(C)Cc2ccccc2)n(C)n(-c2ccccc2)c1=O (stereo not drawn) [ccrp1, Famprofazone]	Neither compound demonstrates any significant effect on the melting temperatures	No effect on luciferase activity was detected	None of the three compounds displayed toxicity	Neither compound demonstrates any significant effect on the melting temperatures	53.04±0.3 °C	quick association and dissociation	0.04 nm
CC(=O)[C@H]1CC[C@H]2[C@@H]3C=CC4=CC(=O)CC[C@@]4(C)[C@@H]3CC[C@]12C [ccrp3, Dydrogesterone]	Neither compound demonstrates any significant effect on the melting temperatures	No effect on luciferase activity was detected	None of the three compounds displayed toxicity	Neither compound demonstrates any significant effect on the melting temperatures	55.78±0.3 °C	quick association and dissociation	0.06–0.1 nm
